Results from paper PMC12348470, “Amino Acid Substitutions in Bacteriocin Lactolisterin BU Reveal Functional Domains Involved in Biological Activity Against Staphylococcus aureus” (Molecules, 2025).
Ends that are not written are not given here.

Tests used:
S. aureus ATCC 25923 [1] = format: cell-based, Staphylococcus aureus
Experimental: MIC values were determined by broth microdilution following the guidelines of the European Committee on Antimicrobial Susceptibility Testing (EUCAST, Version 5.0), with a modification in the choice of medium. Instead of cation-adjusted Mueller–Hinton Broth (CA-MHB), Luria–Bertani (LB) broth was used for all MIC assays involving S. aureus ATCC 25923 to ensure consistency with conditions used in complementary experiments. Two-fold serial dilutions of peptides (ranging from 1.56 to 50 µg/mL) were prepared in sterile LB, inoculated with ~5 × 10^5 CFU/mL bacterial suspension, and incubated at 37 °C for 18–20 h. MIC was defined as the lowest peptide concentration with no visible bacterial growth. All assays were performed in triplicate.

S. aureus ATCC 25923 [2] = format: cell-based, Staphylococcus aureus; remark: listed apart in the source
S. aureus ATCC 25923 [3] = assay: Spot-on-the-lawn antimicrobial screening; format: cell-based, Staphylococcus aureus; conditions: 5 µL spots at 1000, 500, 250, 125 and 62.5 µg/mL on LB soft agar lawn; overnight, 37 °C
Experimental: The antimicrobial activity screening assay of twelve chemically synthesized peptides was evaluated using a spot-on-the-lawn assay against S. aureus ATCC 25923.
S. aureus ATCC 25923 was grown overnight in LB broth, adjusted to 0.5 McFarland (~1 × 10^8 CFU/mL), and mixed 1:100 into molten soft agar (0.7% agar in LB). Five milliliters of this suspension was overlaid onto LB agar plates and allowed to solidify.
Peptide stock solutions (1 mg/mL) were serially diluted in sterile water, and 5 µL of each dilution was carefully spotted onto the surface of the inoculated agar. The plates were dried under a laminar flow hood for 15–20 min and incubated overnight at 37 °C. Zones were observed, and their size and clarity were compared.

[4] = set-up: method as in PMID 28842543; conditions: cited from earlier work
Danio rerio embryos = assay: Zebrafish embryo toxicity (OECD TG 236); format: in vivo; conditions: 120 hpf
Experimental: Embryos were exposed to six different increasing concentrations of each peptide for 5 consecutive days (120 hfp) and examined for survival and signs of toxicity, following toxicological endpoints (Table S1).
The toxicity of synthetic peptide variants was assessed in vivo using Danio rerio embryos, in accordance with OECD Test Guideline 236 (Fish Embryo Acute Toxicity Test) and the European Directive 2010/63/EU on the protection of animals used for scientific purposes, according to Aleksic et al.. All procedures were conducted at the Institute of Molecular Genetics and Genetic Engineering, University of Belgrade.
Wild-type adult zebrafish were maintained under standard laboratory conditions (28 °C; 14:10 h light–dark cycle). Embryos were obtained via pairwise mating and collected within 1 h post-fertilization (hpf). At 5 hpf, the embryos were randomly distributed into 24-well plates (10 embryos/well, 1 mL embryo medium per well) containing embryo water (0.2 mg/mL Instant Ocean® salts in distilled water). Peptides were tested at five concentrations (e.g., 1.56–25 µg/mL) in triplicate. Peptide solvent was used as a negative control. The plates were incubated at 28 °C without media replacement.
Embryonic development was monitored using an inverted microscope (Zeiss Stemi 508; Carl Zeiss Microscopy GmbH, Jena, Germany). Lethal endpoints and sublethal malformations were scored according to OECD guidelines (Table S1). At 120 hpf, the embryos were anesthetized using 0.1% tricaine, photographed, and euthanized via freezing at −20 °C for 24 h.
LC50 values were estimated using the log–logistic binomial model (LL.2) from the drc package in R.
Dose–response curves and LC50 values were estimated using the log–logistic binomial model (LL.2) from the drc package in R [79] (version 2025.05.0). Mortality data were modeled as proportions of dead individuals relative to total individuals tested, and 95% confidence intervals for LC50 were calculated using the delta method.

sheep erythrocytes = assay: Hemolysis assay; format: cell-based
Experimental: Hemolytic activity of peptides was assessed as described by Dong et al., with some modifications. Fresh defibrinated sheep blood was obtained from the Institute of Virology, Vaccines and Sera “Torlak” (Belgrade, Serbia). Erythrocytes were washed three times with sterile Tris-buffered saline (TBS, 10 mM TRIS-HCl, pH 7.4, 150 mM NaCl) by centrifugation at 800× g for 5 min and resuspended to a final 2% (v/v) erythrocyte suspension in TBS.
Peptide solutions (0.02 M HCl) were diluted in Tris-buffered saline (TBS, 10 mM TRIS-HCl, pH 7.4, 150 mM NaCl) to final concentrations ranging from 6.25 to 50 µg/mL. In a 96-well flat-bottom plate, 100 µL of peptide solution was mixed with 100 µL of erythrocyte suspension and incubated at 37 °C for 1 h.
After incubation, the plates were centrifuged at 1000× g for 5 min, and 100 µL of the supernatant was transferred to a flat-bottom 96-well plate. Absorbance was measured at 540 nm using a microplate reader (model BioTek Epoch Microplate Spectrophotometer; Agilent Technologies, Winooski, VT, USA).
Hemolysis (%) was calculated relative to a negative control (TBS; 0% lysis) and a positive control (0.1% SDS; 100% lysis) using the formula: Hemolysis (%)=Asample−ATBS/ASDS−ATBS×100
The assay was performed in triplicate.

gut peptidases = test system: gut peptidases; set-up: method as in PMID 28842543; conditions: cited from earlier work

Sequence | MIC (S. aureus ATCC 25923 [1]) [µg/mL] | MBC (S. aureus ATCC 25923 [2]) [µg/mL] | zones of inhibition, spot-on-the-lawn assay (S. aureus ATCC 25923 [3]) | pH range of activity [4] | salt tolerance [4] | concentration at which yolk sac retention was observed (Danio rerio embryos) [ng/mL] | hemolytic activity, in words (sheep erythrocytes; 6.25 to 50 µg/mL, sheep erythrocytes, 37 °C, 1 h) | Hemolytic activity (%) at 50 µg/mL (sheep erythrocytes; pH 7.4) [%] | sensitivity to gut peptidases (gut peptidases)
MEGRILGTVAKYGPKAVSWAWQHKWELINMGDLAFRYIQRIWG [Peptide W2E] | >50 | >50 | decreased antimicrobial potency | – | – | – | – | – | –
MWARILGTVAKYGPKAVSWAWQAKWELINMGDLAFRYIQRIWG [G3A/H23A] | >50 | >50 | complete loss of antimicrobial activity | – | – | – | – | – | –
MWGRILGTVAKYGAKAVSWAWQHKWELINMGDLAFRYIQRIWG [Peptide P14A] | 25 | – | only faint inhibition zones at the highest concentrations (1000 and 500 µg/mL) | – | – | – | – | – | –
MWGRILGTVAKYGPKAVSWAWQAKWELINMGDLAFRYIQRIWG [Peptide H23A] | >50 | >50 | complete loss of antimicrobial activity | – | – | – | – | – | –
MWGRILGTVAKYGPKAVSWAWQHKWELINMGDLAFRYIQRIWG [LBU] | 12.5 | 25 | clear zones of inhibition across the tested concentrations, except 62.5 µg/mL | shows activity in a wide pH range | salt-tolerable | 6250 | negligible hemolytic activity across all concentrations | 2.98 | sensitive to gut peptidases
MWGRILGTVAKYGPKAVSWAWQRKWELINMGDLAFRYIQRIWG [Peptide H23R] | 12.5 | 50 | comparable to the wild-type LBU peptide | – | – | – | – | – | –
MWGRILGTVAKYGTKAVSWAWQHKWELINMGDLAFRYIQRIWG [Peptide P14T] | 25 | >50 | retained partial activity with a mild decrease in zone diameter compared to LBU | – | – | – | – | – | –
